Experimental data published in ChEMBL document CHEMBL1201862, “PubChem BioAssay data set” (2004).
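Cultured in 96-well plates, cells were exposed to test compound for 48 hours across five concentrations. GI50 is the concentration that inhibits growth by half.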 The source made the active and inactive calls. No stated cut-off is given here; in the data, active = GI50 up to about 1.1 µM and inactive = higher.

Columns and labels:
Experiment in all cases: inhibition of tumour cell growth, NCI panel, 48 h
CCRF-CEM = test system: CCRF-CEM
M14 = test system: M14
A549 = test system: A549
HCC 2998 = test system: HCC 2998
SK-MEL-28 = test system: SK-MEL-28
HT-29 = test system: HT-29
SF-539 = test system: SF-539
A498 = test system: A498
SK-MEL-2 = test system: SK-MEL-2
MDA-MB-231 = test system: MDA-MB-231
Malme-3M = test system: Malme-3M
OVCAR-3 = test system: OVCAR-3
TK-10 = test system: TK-10
SF-268 = test system: SF-268
IGROV-1 = test system: IGROV-1
DU-145 = test system: DU-145
KM12 = test system: KM12
SF-295 = test system: SF-295
UO-31 = test system: UO-31
SK-OV-3 = test system: SK-OV-3

Measured: GI50

O=C(NCCCCCCNCc1cccc2ccccc12)Nc1cccc2ccccc12
inactive: CCRF-CEM > 100 µM | M14 34.3 µM | A549 > 100 µM | HCC 2998 85.3 µM | SK-MEL-28 > 100 µM | HT-29 > 100 µM | SF-539 > 100 µM | A498 > 100 µM | SK-MEL-2 > 100 µM | MDA-MB-231 > 100 µM | Malme-3M > 100 µM | OVCAR-3 > 100 µM | TK-10 > 100 µM | SF-268 > 100 µM | IGROV-1 > 100 µM | DU-145 > 100 µM | KM12 > 100 µM | SF-295 > 100 µM | UO-31 51.6 µM

Cc1cc(S(=O)(=O)[N-]/C(=N/S(=O)(=O)c2ccc(Cl)cc2)[n+]2ccc(N(C)C)cc2)c(S)cc1Cl
inactive: CCRF-CEM 46.2 µM | M14 35.3 µM | HCC 2998 > 100 µM | SK-MEL-28 > 100 µM | HT-29 44.6 µM | SF-539 83.4 µM | A498 26.4 µM | SK-OV-3 41.2 µM | SK-MEL-2 > 100 µM | MDA-MB-231 > 100 µM | OVCAR-3 56.1 µM | TK-10 49.2 µM | SF-268 89.9 µM | IGROV-1 > 100 µM | DU-145 > 100 µM | KM12 > 100 µM | SF-295 40.2 µM | UO-31 79.4 µM

c1cc2nnnn2nc1N1CCCC1
inactive: CCRF-CEM > 100 µM | M14 > 100 µM | A549 > 100 µM | HCC 2998 > 100 µM | SK-MEL-28 > 100 µM | HT-29 > 100 µM | SF-539 > 100 µM | A498 > 100 µM | SK-OV-3 > 100 µM | SK-MEL-2 > 100 µM | MDA-MB-231 > 100 µM | TK-10 > 100 µM | SF-268 > 100 µM | DU-145 > 100 µM | KM12 > 100 µM | SF-295 > 100 µM | UO-31 > 100 µM

O=C1c2ccccc2C(=O)N1c1ccc(Cc2ccc(N3C(=O)c4ccccc4C3=O)cc2)cc1
inactive: M14 > 100 µM | A549 > 100 µM | HCC 2998 > 100 µM | SK-MEL-28 > 100 µM | HT-29 > 100 µM | SF-539 > 80.9 µM | A498 > 100 µM | SK-OV-3 > 100 µM | SK-MEL-2 > 100 µM | MDA-MB-231 > 100 µM | Malme-3M > 100 µM | OVCAR-3 > 21.9 µM | TK-10 > 100 µM | SF-268 > 100 µM | IGROV-1 > 100 µM | DU-145 > 100 µM | KM12 > 100 µM | SF-295 > 50.7 µM | UO-31 > 100 µM

CCN(CC)C(=S)SS(=O)(=O)c1cccc(N)c1
inactive: M14 > 100 µM | A549 > 100 µM | HCC 2998 > 100 µM | SK-MEL-28 > 100 µM | HT-29 > 100 µM | SF-539 > 100 µM | A498 > 100 µM | SK-OV-3 > 100 µM | SK-MEL-2 > 100 µM | MDA-MB-231 > 100 µM | Malme-3M > 100 µM | OVCAR-3 > 100 µM | TK-10 > 100 µM | SF-268 > 100 µM | DU-145 > 100 µM | KM12 > 100 µM | SF-295 > 100 µM | UO-31 > 100 µM

N[C@@H]1C[C@H](N)c2c(Cl)sc(Cl)c21
inactive: CCRF-CEM > 100 µM | M14 > 100 µM | A549 > 100 µM | HCC 2998 > 100 µM | SK-MEL-28 > 100 µM | SF-539 > 100 µM | A498 61.5 µM | SK-MEL-2 > 100 µM | MDA-MB-231 > 100 µM | OVCAR-3 > 100 µM | IGROV-1 > 100 µM | DU-145 > 100 µM | KM12 > 100 µM | SF-295 > 100 µM | UO-31 > 100 µM

O=c1[nH]c2ccsc2c(=O)n1COCc1ccccc1
inactive: CCRF-CEM > 100 µM | M14 > 100 µM | A549 > 100 µM | HCC 2998 > 100 µM | SK-MEL-28 > 100 µM | HT-29 > 100 µM | SF-539 > 100 µM | A498 > 100 µM | SK-MEL-2 > 100 µM | MDA-MB-231 > 100 µM | Malme-3M > 100 µM | OVCAR-3 > 100 µM | TK-10 > 100 µM | SF-268 > 100 µM | IGROV-1 > 100 µM | DU-145 > 100 µM | KM12 > 100 µM | SF-295 > 100 µM | UO-31 > 100 µM

COC(=O)CC1CN(C(=O)OCc2ccccc2)C(C)(C)O1 (configuration not stated)
inactive: CCRF-CEM > 100 µM | M14 > 100 µM | A549 > 100 µM | HCC 2998 > 100 µM | SK-MEL-28 9.06 µM | SF-539 > 100 µM | A498 > 100 µM | SK-OV-3 > 100 µM | SK-MEL-2 > 100 µM | MDA-MB-231 > 100 µM | Malme-3M 45.3 µM | OVCAR-3 > 100 µM | TK-10 56.9 µM | IGROV-1 82.2 µM | DU-145 > 100 µM | KM12 43.3 µM | SF-295 > 100 µM | UO-31 38.6 µM

O=C(N/N=C\c1cccc(O)c1)c1ccncc1
inactive: M14 > 100 µM | A549 > 100 µM | HCC 2998 > 100 µM | SK-MEL-28 > 100 µM | HT-29 > 100 µM | A498 > 100 µM | SK-MEL-2 > 100 µM | MDA-MB-231 > 100 µM | Malme-3M > 100 µM | OVCAR-3 > 100 µM | TK-10 > 100 µM | SF-268 > 100 µM | IGROV-1 > 100 µM | DU-145 > 100 µM | KM12 > 100 µM | SF-295 > 100 µM | UO-31 > 100 µM

CCOC(=O)c1cc2c(ccc3cc(C(=O)OCC)[nH]c32)[nH]1
inactive: CCRF-CEM 27.8 µM | M14 23 µM | A549 29.7 µM | HCC 2998 99.8 µM | SK-MEL-28 8.36 µM | SF-539 12.3 µM | A498 52 µM | SK-OV-3 > 100 µM | SK-MEL-2 > 100 µM | MDA-MB-231 12.6 µM | Malme-3M 43.3 µM | OVCAR-3 87.1 µM | TK-10 50.2 µM | SF-268 17.1 µM | IGROV-1 53.7 µM | DU-145 35.2 µM | KM12 95.1 µM | SF-295 60.7 µM | UO-31 48.6 µM

Cc1ccc(C2=Nn3c(nc4sc(-c5ccccc5)cc4c3=O)SC2)cc1
inactive: CCRF-CEM > 100 µM | A549 > 100 µM | HCC 2998 > 100 µM | SK-MEL-28 > 100 µM | HT-29 > 100 µM | SF-539 > 100 µM | A498 > 100 µM | SK-OV-3 > 100 µM | MDA-MB-231 > 100 µM | Malme-3M > 100 µM | OVCAR-3 > 100 µM | TK-10 > 100 µM | SF-268 > 100 µM | IGROV-1 > 100 µM | DU-145 > 100 µM | KM12 > 100 µM | SF-295 > 100 µM | UO-31 > 100 µM
